Measured values published in patent publication US9162975B2, “Phenyl carbamate compounds for use in alleviating or treating pain” (Bio-Pharm Solutions Co., Ltd., priority 2011, dated 2015).

System: vincristine-induced pain model in rats
Assay: Antiallodynic activity on vincristine-induced pain model, von Frey
Assay type: in vivo, Sprague-Dawley rats
Details: 0.5 hr, paw withdrawal threshold relative to sham
Description: Male, Sprague-Dawley rats (300-320 g, Nara Bio, Korea) were habituated for 1 week before surgery and allowed free access to food and water throughout the experimentation. Room temperature and humidity were maintained at 24±2° C. and 50±10%, respectively.
Vincristine was established by the procedure of Natsuko et al. (2001) with minor modifications. Vincristine was intravenously infused continuously for 14 days using a mini-osmotic pump as follows. Vincristine sulfate solution (Hospira, Australia) was diluted with 0.9% saline to 30 ug/kg, final dose. The pumps (Alzet Model 2002, USA) were filled with the vincristine solution and primed by incubation at 37° C. for 4 h before the infusion. Briefly, animal under gaseous anesthesia with isoflurane a 4:4 flow ratio of NO2. […]
Tactile sensitivity (Mechanical allodynia) was evaluated using von Frey monofilaments before and after treatment, and animals were used withdrawal threshold value was less than 4 g. […] The tactile sensitivity for ipsilateral hind paw was measured using the up-and-down method (Dixon, 1980) with seven von Frey monofilaments (0.4, 1, 2, 4, 6, 8, and 15 g) to 3 trials. […] The 50% paw withdrawal threshold for each paw was calculated using the following formula: [Xth] log=[vFr] log+ky where [vFr] is the force of the last von Frey used, k=0.2249 which is the average interval (in log units) between the von Frey monofilaments, and y is a value that depends upon the pattern of withdrawal responses (Dixon, 1980).
Antiallodynic effect of compound of Example 1 was evaluated at the dose of 1, 5 and 10 mg/kg (n=6), intraperitoneally administrated in a volume of 5 ul/g, bw in a vehicle of 30% (v/v) PEG. […]
The relative values compared to the sham (% control) were calculated and shown in Table 6 and FIG. 6, which show an antiallodynic effect of Compound 1 on vincristine-induced pain model in rats.

C[C@H](OC(N)=O)[C@@H](O)c1ccccc1Cl [Example 1, 1-(2-chlorophenyl)-(S)-1-hydroxypropyl-(S)-2-carbamate]
% Control (vincristine-induced pain model) (dose 1 mg/kg intraperitoneally): 20.7%
% Control (vincristine-induced pain model) (dose 5 mg/kg intraperitoneally): 63.1%
% Control (vincristine-induced pain model) (dose 10 mg/kg intraperitoneally): 71.7%
